Earlier results, collected in patent US9918950B2, “Targeted treatment of anerobic cancer” (University Hospitals Cleveland Medical Center, priority 2012, dated 2018).

What was measured:
[1] = tested on: HCT116 human colon carcinoma cells; conditions: HCT116 window chamber tumors
[2] = tested on: 4T1 mouse mammary carcinoma cells; conditions: 4T1 window chamber tumors

Nc1n[n+]([O-])c2ccccc2[n+]1[O-] [tirapazamine]
time required for onset of incipient angiogenesis versus saline treatment ([1]; n=8, log-rank P=0.33): No significant difference
median time required for the initial hypoxic response ([1]; versus 3.5 days saline, Kaplan-Meier, n=8, P<0.001): 9.5 days
time required for incipient angiogenesis versus saline treatment ([2]; n=8, log-rank P=0.66): No significant difference
median time required for the initial hypoxic response ([2]; versus 4 days saline, n=8, P<0.05): 5.5 days
